Data: ChEMBL document CHEMBL5244202, “Structural evolution of toll-like receptor 7/8 agonists from imidazoquinolines to imidazoles” (RSC Med Chem, 2021)

Columns and labels:
Toll-like receptor 7 [1] = biological target: T1, Toll-like receptor 7 (Homo sapiens, UniProt Q9NYK1); test: Agonist activity at human TLR7 in HEK-Blue hTLR7 cells assessed as activation of NFkappaB by SEAP reporter gene based spectrophotometry assay; format: cell-based; settings: hek-blue htlr7
T1 sequence (Q9NYK1 whole entry): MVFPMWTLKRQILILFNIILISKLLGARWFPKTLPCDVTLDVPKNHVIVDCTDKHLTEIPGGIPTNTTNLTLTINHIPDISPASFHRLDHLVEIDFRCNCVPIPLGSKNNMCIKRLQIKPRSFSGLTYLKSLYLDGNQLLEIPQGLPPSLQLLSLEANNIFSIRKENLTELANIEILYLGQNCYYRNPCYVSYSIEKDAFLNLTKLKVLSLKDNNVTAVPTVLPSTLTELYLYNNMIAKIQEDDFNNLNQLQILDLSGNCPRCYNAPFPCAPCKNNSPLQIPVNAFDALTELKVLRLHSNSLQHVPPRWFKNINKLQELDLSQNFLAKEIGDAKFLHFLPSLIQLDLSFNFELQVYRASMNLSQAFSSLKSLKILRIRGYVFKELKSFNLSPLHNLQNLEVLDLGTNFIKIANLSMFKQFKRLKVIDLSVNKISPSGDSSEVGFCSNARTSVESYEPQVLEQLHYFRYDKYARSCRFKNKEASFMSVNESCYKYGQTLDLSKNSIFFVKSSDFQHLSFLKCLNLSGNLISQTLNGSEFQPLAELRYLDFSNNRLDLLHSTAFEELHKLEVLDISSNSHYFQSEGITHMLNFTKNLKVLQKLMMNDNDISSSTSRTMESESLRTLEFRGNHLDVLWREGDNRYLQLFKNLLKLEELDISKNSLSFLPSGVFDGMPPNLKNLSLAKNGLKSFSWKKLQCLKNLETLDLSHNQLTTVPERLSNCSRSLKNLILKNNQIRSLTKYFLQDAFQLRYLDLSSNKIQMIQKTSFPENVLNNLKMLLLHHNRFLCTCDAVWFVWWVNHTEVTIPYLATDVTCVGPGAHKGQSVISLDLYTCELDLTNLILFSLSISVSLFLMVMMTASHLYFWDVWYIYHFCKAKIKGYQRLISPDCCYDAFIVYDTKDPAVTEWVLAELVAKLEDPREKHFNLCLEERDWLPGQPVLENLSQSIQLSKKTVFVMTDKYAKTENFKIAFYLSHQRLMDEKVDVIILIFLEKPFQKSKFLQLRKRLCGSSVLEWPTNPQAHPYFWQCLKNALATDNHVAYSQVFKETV

Toll-like receptor 8 [2] = biological target: T2, Toll-like receptor 8 (Homo sapiens, UniProt Q9NR97); test: Agonist activity at human TLR8 in HEK-Blue hTLR8 cells assessed as activation of NFkappaB by SEAP reporter gene based spectrophotometry assay; format: cell-based; settings: hek-blue htlr8
T2 sequence (Q9NR97 whole entry): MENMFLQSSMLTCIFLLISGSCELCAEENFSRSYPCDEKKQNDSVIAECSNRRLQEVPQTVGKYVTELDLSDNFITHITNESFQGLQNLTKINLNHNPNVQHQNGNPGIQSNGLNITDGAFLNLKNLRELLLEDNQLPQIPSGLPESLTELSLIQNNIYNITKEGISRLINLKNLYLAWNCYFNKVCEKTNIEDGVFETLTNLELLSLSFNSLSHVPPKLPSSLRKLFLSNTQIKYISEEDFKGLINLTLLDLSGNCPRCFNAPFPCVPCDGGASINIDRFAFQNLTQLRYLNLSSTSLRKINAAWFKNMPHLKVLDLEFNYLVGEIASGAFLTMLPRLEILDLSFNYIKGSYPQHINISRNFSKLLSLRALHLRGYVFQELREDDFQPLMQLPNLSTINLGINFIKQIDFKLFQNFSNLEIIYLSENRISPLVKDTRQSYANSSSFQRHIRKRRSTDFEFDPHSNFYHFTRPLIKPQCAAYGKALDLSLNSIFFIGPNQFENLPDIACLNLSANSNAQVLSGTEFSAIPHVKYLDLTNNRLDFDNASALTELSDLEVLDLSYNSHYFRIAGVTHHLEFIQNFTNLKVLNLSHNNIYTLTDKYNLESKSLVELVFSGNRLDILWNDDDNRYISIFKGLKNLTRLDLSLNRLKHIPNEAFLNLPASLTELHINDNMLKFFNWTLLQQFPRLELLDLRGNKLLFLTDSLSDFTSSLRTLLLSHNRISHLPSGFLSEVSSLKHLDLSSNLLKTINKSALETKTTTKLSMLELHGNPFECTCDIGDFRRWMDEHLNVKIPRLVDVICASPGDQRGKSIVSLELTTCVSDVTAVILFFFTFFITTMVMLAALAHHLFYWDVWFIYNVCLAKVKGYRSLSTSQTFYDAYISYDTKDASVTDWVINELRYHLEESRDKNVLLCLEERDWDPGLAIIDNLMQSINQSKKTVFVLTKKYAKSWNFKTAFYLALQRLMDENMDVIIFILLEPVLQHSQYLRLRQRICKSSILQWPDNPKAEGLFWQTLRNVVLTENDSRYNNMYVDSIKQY

Toll-like receptor 8 [3] = biological target: T2, Toll-like receptor 8; test: Agonist activity at human TLR8 transfected in HEK293 cells assessed as induction of SEAP production incubated overnight; format: cell-based
Toll-like receptor 7 [4] = biological target: T1, Toll-like receptor 7; test: Agonist activity at recombinant human TLR7 transfected in HEK293 cells assessed as induction of SEAP production incubated overnight by SEAP reporter gene based assay; format: cell-based
Toll-like receptor 7 [5] = biological target: T1, Toll-like receptor 7; test: Agonist activity at TLR7 (unknown origin)
Toll-like receptor 7 [6] = biological target: T1, Toll-like receptor 7; test: Agonist activity at human TLR7 in HEK-Blue hTLR7 cells incubated for 24 hrs by quanti-blue reagent based analysis; format: cell-based
Toll-like receptor 8 [7] = biological target: T2, Toll-like receptor 8; test: Agonist activity at human TLR8 in HEK-Blue hTLR8 cells incubated for 24 hrs by quanti-blue reagent based analysis; format: cell-based
Toll-like receptor 8 [8] = biological target: T2, Toll-like receptor 8; test: Agonist activity at TLR8 (unknown origin)
Toll-like receptor 7 [9] = biological target: T1, Toll-like receptor 7; test: Agonist activity at human TLR7 transfected in HEK293 cells assessed as induction of SEAP production incubated overnight by SEAP reporter gene based assay; format: cell-based
[10] = biological target: T3, Toll-like receptor 7 (Homo sapiens) (UniProt Q9NYK1); test: Agonist activity at human TLR7 transfected in HEK293 cells incubated for 6 hrs by luciferase based analysis; format: cell-based; settings: filed as agonist
T3 sequence (whole entry): T1 sequence (Q9NYK1 whole entry)

[11] = biological target: T4, Toll-like receptor 8 (Homo sapiens) (UniProt Q9NR97); test: Agonist activity at human TLR8 transfected in HEK293 cells incubated for 6 hrs by luciferase based analysis; format: cell-based; settings: filed as agonist
T4 sequence (whole entry): T2 sequence (Q9NR97 whole entry)

[12] = Induction of IFN production in C3H/HeJ mouse splenocytes incubated for 18 hrs; format: functional; settings: Splenocyte, read-out: MEC
Toll-like receptor 8 [13] = biological target: T2, Toll-like receptor 8; test: Agonist activity at human TLR8 (27 to 287 residues) in HEK-Blue hTLR8 cells assessed as induction of NFkappaB by SEAP reporter gene based spectrophotometry assay; format: cell-based

## CCc1nc2c(N)nc3ccccc3c2s1
Toll-like receptor 7 [1]
  EC50: 5.12 µM
Toll-like receptor 8 [2]
  EC50: 0.81 µM

## CCCCCc1nc2c(N)nc3ccccc3c2s1
Toll-like receptor 7 [1]
  EC50: 4.14 µM
Toll-like receptor 8 [2]
  EC50: 1.94 µM

## CC(C)c1nc2c(N)nc3ccccc3c2s1
Toll-like receptor 7 [1]
  EC50: 9.67 µM
Toll-like receptor 8 [2]
  EC50: 10.8 µM

## CCC[C@@H](CCO)Nc1nc(N)nc(C)c1Cc1ccc(CNCCO)cc1OC
Toll-like receptor 8 [3]
  EC50: > 10 µM
Toll-like receptor 7 [4]
  EC50: 0.00977 µM

## CCCCNc1nc(N)nnc1OCCCc1ccccc1
Toll-like receptor 7 [5]
  EC50: 2.94 µM

## CCCCNc1nc(N)nnc1OCc1ccccc1F
Toll-like receptor 7 [5]
  EC50: 0.75 µM

## CCCCOc1nc(N)c2[nH]c(C#N)c(Cc3cnc(CN4CCCC4)s3)c2n1
Toll-like receptor 7 [6]
  EC50: 0.454 µM
Toll-like receptor 8 [7]
  EC50: 293 µM

## CCCCNc1nc(N)nnc1OCc1ccccc1
Toll-like receptor 7 [5]
  EC50: 2.94 µM
Toll-like receptor 8 [8]
  EC50: 1.93 µM

## CCC[C@@H](CCO)Nc1nc(N)nc(C)c1Cc1ccc(CNCC(N)=O)cc1OC
Toll-like receptor 8 [3]
  EC50: > 10 µM
Toll-like receptor 7 [4]
  EC50: 0.0447 µM

## COCCc1nc2c(N)nc3ccccc3c2n1CCCCN(CCN(C)C)Cc1cccc(OCC(=O)OC(C)(C)C)c1
Toll-like receptor 7 [9]
  EC50: 0.0564 µM

## CCOC(=O)COc1ccc(CN(CCCn2c(CCOC)nc3c(N)nc4ccccc4c32)C(=O)CN(C)C)cc1
Toll-like receptor 7 [9]
  EC50: 0.172 µM

## CCC[C@@H](CCO)Nc1nc(N)nc(C)c1Cc1ccc(CNCCC(N)=O)cc1OC
Toll-like receptor 8 [3]
  EC50: > 10 µM
Toll-like receptor 7 [4]
  EC50: 0.0813 µM

## Nc1nc2ccccc2c2sc(CCC(F)(F)F)nc12
Toll-like receptor 7 [1]
  EC50: 3.63 µM
Toll-like receptor 8 [2]
  EC50: 1.61 µM

## CCOC(=O)COc1cccc(CN(CCCn2c(CCOC)nc3c(N)nc4ccccc4c32)C(=O)CN(CC)CC)c1
Toll-like receptor 7 [9]
  EC50: 0.0546 µM

## CCCCNc1nc(N)nnc1OCCOC
Toll-like receptor 7 [5]
  EC50: 4.75 µM
Toll-like receptor 8 [8]
  EC50: 1 µM

## CCC[C@@H](CCO)Nc1nc(N)nc(C)c1Cc1ccc(CNC2CNC2)cc1OC
Toll-like receptor 8 [3]
  EC50: > 10 µM
Toll-like receptor 7 [4]
  EC50: 0.0195 µM

## CCC[C@@H](CO)Nc1nc(N)nc(C)c1Cc1ccc(CNC2CN(C)C2)cc1OC
Toll-like receptor 8 [3]
  EC50: 6.17 µM
Toll-like receptor 7 [4]
  EC50: 0.155 µM

## CCOC(=O)COc1ccc(CN(CCCn2c(CCOC)nc3c(N)nc4ccccc4c32)C(=O)CN2CCCC2)cc1
Toll-like receptor 7 [9]
  EC50: 0.15 µM

## CCCCNc1nc(N)nnc1OCc1ccccc1OC
Toll-like receptor 8 [8]
  EC50: 0.64 µM

## CCC[C@H](CCO)Nc1nc(N)nnc1OCc1nccc(OC)c1OC
Toll-like receptor 7 [5]
  EC50: 0.24 µM
Toll-like receptor 8 [8]
  EC50: 0.56 µM

## CCC[C@@H](CCO)Nc1nc(N)nc(C)c1Cc1ccc(CNC2CN(C)C2)cc1OC
Toll-like receptor 8 [3]
  EC50: > 10 µM
Toll-like receptor 7 [4]
  EC50: 0.0191 µM

## CCCC[C@@H](CO)Nc1nc(N)nc2ccsc12
[10]
  MEC: 0.5 µM
[11]
  MEC: 0.03 µM

## CCCCSc1nc(N)c2nc(O)n(Cc3ccccc3)c2n1
[12]
  minimal effective concentration: 0.01 µM

## CCCc1nc2c(N)nc3ccc(N=[N+]=[N-])cc3c2s1
Toll-like receptor 7 [1]
  EC50: 10.2 µM
Toll-like receptor 8 [2]
  EC50: 2.06 µM

## CCOc1cc2ccccc2nc1N
Toll-like receptor 8 [13]
  EC50: 100 µM

## CCCCNc1nc(N)nnc1OCCCN(C)C
Toll-like receptor 7 [5]
  EC50: > 25 µM
Toll-like receptor 8 [8]
  EC50: 0.1 µM
